This is an account of results in US12509453B2, “BRM/BRG1 inhibitors and uses thereof” (Foghorn Therapeutics Inc., priority 2019, dated 2025).

For one assay, the target named is T1, BRM (Homo sapiens, UniProt P51531).
T1 construct: made in house; host or cells: High Five insect cells
The experiment in a line: ATPase catalytic activity assay (ADP-Glo), BRM. It counts as biochemical. The settings on record: 30 nM BRM, 400 μM ATP; for IC50: 20 nM salmon sperm DNA, read-out: BRM IP50 (μM)*. How it is done: (§1) The ATPase catalytic activity of BRM or BRG-1 was measured by the in vitro biochemical assay using ADP-Glo™ (Promega, V9102). The ADP-Glo™ kinase assay is performed in two steps once the reaction is complete. The first step is to deplete any unconsumed ATP in the reaction. The second step is to convert the reaction product ADP to ATP, which will be utilized by the luciferase to generate luminesce and be detected by a luminescence reader, such as Envision.
(§2) The assay reaction mixture (10 μL) contains 30 nM of BRM or BRG-1, 20 nM salmon sperm DNA (from Invitrogen, UltraPure™ Salmon Sperm DNA Solution, cat #15632011), and 400 μM of ATP in the ATPase assay buffer, which comprises of 20 mM Tris, pH 8, 20 mM MgCl2, 50 mM NaCl, 0.1% Tween-20, and 1 mM fresh DTT (Pierce™ DTT (Dithiothreitol), cat #20290). The reaction is initiated by the addition of the 2.5 μL ATPase solution to 2.5 μL ATP/DNA solution on low volume white Proxiplate-384 plus plate (PerkinElmer,cat #6008280) and incubates at room temperature for 1 hour. Then following addition of 5 μL of ADP-Glo™ Reagent provided in the kit, the reaction incubates at room temperature for 40 minutes. Then 10 μL of Kinase Detection Reagent provided in the kit is added to convert ADP to ATP, and the reaction incubates at room temperature for 60 minutes. Finally, luminescence measurement is collected with a plate-reading luminometer, such as Envision.
(§3) The ADP-Glo™ kinase assay is performed in two steps once the reaction is complete. The first step is to deplete any unconsumed ATP in the reaction. The second step is to convert the reaction product ADP to ATP, which will be utilized by the luciferase to generate luminesce and be detected by a luminescence reader, such as Envision.
as §2, with “BRG1,” for “BRG-1,”

The target of a further assay is T2, BRG-1 (Homo sapiens, UniProt P51532).
T2 construct: made in house; host or cells: High Five insect cells
The experiment in a line: ATPase catalytic activity assay (ADP-Glo), BRG-1. The class given is biochemical. The settings on record: 30 nM BRG-1, 400 μM ATP; for IC50: 20 nM salmon sperm DNA, read-out: BRG1 IP50 (μM)*; for Emax: read-out: BRG1 Max % Inhibition. How it is done:
as §1, §2, §3
as §2, with “BRG1,” for “BRG-1,”

Some results are limits rather than exact numbers.

T2 sequence (P51532 whole entry): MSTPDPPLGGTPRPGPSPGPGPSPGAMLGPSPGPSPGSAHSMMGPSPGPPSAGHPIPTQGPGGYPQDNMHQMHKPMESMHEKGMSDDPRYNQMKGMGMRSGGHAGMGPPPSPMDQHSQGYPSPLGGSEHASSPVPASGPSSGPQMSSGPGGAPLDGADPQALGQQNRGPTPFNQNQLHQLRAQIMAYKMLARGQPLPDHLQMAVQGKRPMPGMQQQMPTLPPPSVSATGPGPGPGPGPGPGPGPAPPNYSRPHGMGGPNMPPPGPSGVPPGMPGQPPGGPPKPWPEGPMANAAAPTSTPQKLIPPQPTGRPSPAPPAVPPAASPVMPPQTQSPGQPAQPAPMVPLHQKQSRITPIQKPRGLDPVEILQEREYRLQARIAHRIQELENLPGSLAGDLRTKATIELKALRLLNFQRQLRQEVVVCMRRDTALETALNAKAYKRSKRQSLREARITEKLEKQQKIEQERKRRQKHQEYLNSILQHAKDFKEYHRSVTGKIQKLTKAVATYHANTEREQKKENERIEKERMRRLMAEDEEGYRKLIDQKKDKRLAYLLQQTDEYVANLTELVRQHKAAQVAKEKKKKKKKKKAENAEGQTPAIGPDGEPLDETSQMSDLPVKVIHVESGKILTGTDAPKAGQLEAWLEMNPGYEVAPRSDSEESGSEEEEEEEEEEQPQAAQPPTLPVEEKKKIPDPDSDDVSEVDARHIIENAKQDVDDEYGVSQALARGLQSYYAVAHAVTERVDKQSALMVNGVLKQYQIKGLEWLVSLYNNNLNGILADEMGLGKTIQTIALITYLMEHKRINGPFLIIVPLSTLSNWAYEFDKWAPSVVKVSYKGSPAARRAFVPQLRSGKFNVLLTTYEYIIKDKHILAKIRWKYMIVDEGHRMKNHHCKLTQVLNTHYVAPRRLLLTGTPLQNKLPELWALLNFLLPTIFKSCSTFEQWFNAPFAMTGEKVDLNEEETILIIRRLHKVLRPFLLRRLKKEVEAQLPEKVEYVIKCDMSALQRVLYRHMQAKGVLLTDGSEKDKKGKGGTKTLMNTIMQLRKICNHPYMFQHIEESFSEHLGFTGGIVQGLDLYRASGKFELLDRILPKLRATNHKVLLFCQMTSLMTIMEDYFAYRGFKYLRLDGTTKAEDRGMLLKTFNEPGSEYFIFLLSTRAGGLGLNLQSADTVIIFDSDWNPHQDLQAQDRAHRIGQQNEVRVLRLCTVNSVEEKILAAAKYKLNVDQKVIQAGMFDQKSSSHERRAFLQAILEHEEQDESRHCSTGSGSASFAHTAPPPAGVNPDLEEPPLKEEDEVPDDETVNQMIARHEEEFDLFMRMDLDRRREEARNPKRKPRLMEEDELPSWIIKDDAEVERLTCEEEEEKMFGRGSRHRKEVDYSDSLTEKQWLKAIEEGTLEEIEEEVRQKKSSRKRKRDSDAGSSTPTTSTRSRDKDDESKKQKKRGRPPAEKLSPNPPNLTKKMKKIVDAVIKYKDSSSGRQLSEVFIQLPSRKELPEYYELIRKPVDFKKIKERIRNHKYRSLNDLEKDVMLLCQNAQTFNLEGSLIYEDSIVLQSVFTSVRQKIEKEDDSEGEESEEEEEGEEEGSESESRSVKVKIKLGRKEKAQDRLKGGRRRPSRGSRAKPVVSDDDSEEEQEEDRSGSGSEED
T1 sequence (P51531 whole entry): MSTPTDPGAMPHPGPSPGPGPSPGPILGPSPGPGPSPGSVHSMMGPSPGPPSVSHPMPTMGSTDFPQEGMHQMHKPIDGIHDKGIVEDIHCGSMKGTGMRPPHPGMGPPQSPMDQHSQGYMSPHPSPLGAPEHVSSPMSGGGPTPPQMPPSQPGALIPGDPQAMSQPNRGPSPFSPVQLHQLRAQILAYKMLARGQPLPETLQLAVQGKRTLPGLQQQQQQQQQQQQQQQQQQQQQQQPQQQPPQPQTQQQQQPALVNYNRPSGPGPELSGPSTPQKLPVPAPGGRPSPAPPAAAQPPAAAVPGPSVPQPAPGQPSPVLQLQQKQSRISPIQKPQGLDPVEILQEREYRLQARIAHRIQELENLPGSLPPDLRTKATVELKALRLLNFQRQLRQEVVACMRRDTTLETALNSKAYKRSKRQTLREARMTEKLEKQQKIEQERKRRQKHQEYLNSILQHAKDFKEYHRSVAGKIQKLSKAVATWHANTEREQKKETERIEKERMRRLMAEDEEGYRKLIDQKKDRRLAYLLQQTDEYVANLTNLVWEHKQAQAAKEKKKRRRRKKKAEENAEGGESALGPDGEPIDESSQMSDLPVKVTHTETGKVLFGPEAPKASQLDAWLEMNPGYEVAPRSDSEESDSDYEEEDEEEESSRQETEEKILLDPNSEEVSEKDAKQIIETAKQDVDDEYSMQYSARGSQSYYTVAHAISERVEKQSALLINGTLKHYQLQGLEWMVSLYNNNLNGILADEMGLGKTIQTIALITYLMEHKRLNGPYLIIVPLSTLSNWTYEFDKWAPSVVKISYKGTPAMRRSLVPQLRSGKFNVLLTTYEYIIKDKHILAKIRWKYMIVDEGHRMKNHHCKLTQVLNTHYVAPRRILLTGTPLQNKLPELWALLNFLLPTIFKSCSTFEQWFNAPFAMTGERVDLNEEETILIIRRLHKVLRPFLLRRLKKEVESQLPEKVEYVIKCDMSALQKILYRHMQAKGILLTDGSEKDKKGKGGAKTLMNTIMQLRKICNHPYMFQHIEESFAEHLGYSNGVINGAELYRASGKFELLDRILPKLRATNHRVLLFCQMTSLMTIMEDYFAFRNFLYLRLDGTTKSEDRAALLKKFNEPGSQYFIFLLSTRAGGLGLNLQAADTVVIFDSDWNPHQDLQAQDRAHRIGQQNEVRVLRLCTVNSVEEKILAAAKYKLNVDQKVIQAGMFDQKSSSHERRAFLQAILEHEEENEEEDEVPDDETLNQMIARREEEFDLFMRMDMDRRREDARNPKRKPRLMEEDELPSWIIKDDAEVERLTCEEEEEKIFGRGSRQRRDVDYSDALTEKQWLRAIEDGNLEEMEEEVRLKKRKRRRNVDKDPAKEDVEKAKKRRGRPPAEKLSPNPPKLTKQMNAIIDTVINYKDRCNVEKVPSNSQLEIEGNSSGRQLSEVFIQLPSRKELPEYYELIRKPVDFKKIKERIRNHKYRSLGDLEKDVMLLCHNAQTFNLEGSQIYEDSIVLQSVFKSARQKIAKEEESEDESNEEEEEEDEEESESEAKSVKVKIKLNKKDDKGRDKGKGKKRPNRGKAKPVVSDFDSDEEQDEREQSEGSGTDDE

In the case of `Cc1cc(C(=O)NCC(=O)Nc2nc(-c3cccc(N4C[C@@H](C)O[C@@H](C)C4)n3)cs2)cn1S(=O)(=O)C(C)C` [Compound 38, N-(2-((4-(6-((cis)-2,6-dimethylmorpholino)pyridin-2-yl)thiazol-2-yl)amino)-2-oxoethyl)-1-(isopropylsulfonyl)-5-methyl-1H-pyrrole-3-carboxamide], on BRM, the “BRM Max % Inhibition” value is over 95% and the IC50 fell in the range of 0.1 to 1 µM. On BRG-1, the IC50 fell in the range of 1 to 5 µM and the Emax is over 70%.
As to `CC(C)S(=O)(=O)n1cc(C(=O)NCC(=O)Nc2nc(-c3cccc(N4C[C@@H](C)O[C@@H](C)C4)c3)cs2)c2ccccc21` [Compound 31, N-(2-((4-(3-((cis)-2,6-dimethylmorpholino)phenyl)thiazol-2-yl)amino)-2-oxoethyl)-1-(isopropylsulfonyl)-1H-indole-3-carboxamide], at BRM, the “BRM Max % Inhibition” value is given as over 80% and the IC50 lay in the range of 0.1 to 1 µM. In addition, at BRG-1, the IC50 was over 5 µM and the Emax is under 30%.
Consider `Cc1cc(-c2cccc(-c3csc(NC(=O)CNC(=O)c4cn(S(C)(=O)=O)c5c4CCCC5)n3)c2)cc(C)n1` [Compound 35, N-(2-((4-(3-(2,6-dimethylpyridin-4-yl)phenyl)thiazol-2-yl)amino)-2-oxoethyl)-1-(methylsulfonyl)-4,5,6,7-tetrahydro-1H-indole-3-carboxamide], for which, on BRM, the “BRM Max % Inhibition” value was over 95% and the IC50 was under 0.1 µM. On BRG-1, the IC50 was 0.1 to 1 µM and the Emax was over 80%.
Consider `CC(C)S(=O)(=O)n1cc(C(=O)NCC(=O)Nc2nc(-c3cccc(-c4ccncc4)c3)cs2)c2ccccc21` [Compound 4, 1-(isopropylsulfonyl)-N-(2-oxo-2-((4-(3-(pyridin-4-yl)phenyl)thiazol-2-yl)amino)ethyl)-1H-indole-3-carboxamide], for which, at BRM, the “BRM Max % Inhibition” value is given as over 60% and the IC50 was 0.1 to 1 µM. Further, the IC50 on BRG-1 is over 5 µM.
In the case of `Cc1cc(-c2cccc(-c3csc(NC(=O)CNC(=O)c4cc(Cl)n(S(=O)(=O)C(C)C)c4)n3)c2)nc(C)n1` [Compound 32, 5-chloro-N-(2-((4-(3-(2,6-dimethylpyrimidin-4-yl)phenyl)thiazol-2-yl)amino)-2-oxoethyl)-1-(isopropylsulfonyl)-1H-pyrrole-3-carboxamide], at BRM, the “BRM Max % Inhibition” value is reported as over 95% and the IC50 is under 0.1 µM. Also, on BRG-1, the IC50 was in the range of 0.1 to 1 µM and the Emax is over 90%.
Take `Cc1cc(-c2cccc(-c3csc(NC(=O)CNC(=O)c4cn(S(=O)(=O)C(C)C)c(C)c4C)n3)c2)nc(C)n1` [Compound 14]: at BRM, the “BRM Max % Inhibition” value is recorded as over 95% and the IC50 was under 0.1 µM. In addition, at BRG-1, the IC50 was in the range of 0.1 to 1 µM and the Emax is over 90%.
Turning to `Cc1cc(C(=O)NCC(=O)Nc2nc(-c3cccc(-c4ccnc(N(C)CC(=O)O)c4)c3)cs2)cn1S(C)(=O)=O` [Compound 45, N-methyl-N-(4-(3-(2-(2-(5-methyl-1-(methylsulfonyl)-1H-pyrrole-3-carboxamido)acetamido)thiazol-4-yl)phenyl)pyridin-2-yl)glycine], the IC50 at BRM and on BRG-1 was under 0.1 µM throughout.
With `Cc1nccc(-c2cccc(-c3csc(NC(=O)CNC(=O)c4cn(S(=O)(=O)C(C)C)c(C)c4C)n3)c2)n1` [Compound 17], on BRM, the “BRM Max % Inhibition” value is given as over 95% and the IC50 was under 0.1 µM. On BRG-1, the IC50 fell in the range of 0.1 to 1 µM and the Emax was over 80%.
On the same counts, the results for `Cc1c(C(=O)NCC(=O)Nc2nc(-c3cccc(-c4ccncc4)c3)cs2)cn(S(C)(=O)=O)c1C` [Compound 11, 4,5-dimethyl-1-(methylsulfonyl)-N-(2-oxo-2-((4-(3-(pyridin-4-yl)phenyl)thiazol-2-yl)amino)ethyl)-1H-pyrrole-3-carboxamide] are over 95%, under 0.1 µM, under 0.1 µM and over 80%.
As to `Cc1cc(-c2cccc(-c3csc(NC(=O)CNC(=O)c4cc(Cl)n(S(=O)(=O)C(C)C)c4)n3)n2)ncn1` [Compound 27, 5-chloro-1-(isopropylsulfonyl)-N-(2-((4-(6-(6-methylpyrimidin-4-yl)pyridin-2-yl)thiazol-2-yl)amino)-2-oxoethyl)-1H-pyrrole-3-carboxamide], on BRM, the “BRM Max % Inhibition” value is over 80% and the IC50 lay in the range of 0.1 to 1 µM. On BRG-1, the IC50 was 0.1 to 1 µM and the Emax is over 60%.
Turning to `CC(C)S(=O)(=O)n1cc(C(=O)NCC(=O)Nc2nc(-c3cccc(N4C[C@@H](C)O[C@@H](C)C4)n3)cs2)cc1Cl` [Compound 37, 5-chloro-N-(2-((4-(6-((cis)-2,6-dimethylmorpholino)pyridin-2-yl)thiazol-2-yl)amino)-2-oxoethyl)-1-(isopropylsulfonyl)-1H-pyrrole-3-carboxamide], at BRM, the “BRM Max % Inhibition” value is over 80% and the IC50 was 0.1 to 1 µM. Besides, at BRG-1, the IC50 was in the range of 1 to 5 µM and the Emax was over 40%.
For the molecule `Cc1cc(C(=O)NCC(=O)Nc2nc(-c3cccc(N4C[C@@H](C)O[C@@H](C)C4)c3)cs2)cn1S(=O)(=O)C(C)C` [Compound 8, N-(2-((4-(3-((2S,6R)-2,6-dimethylmorpholino)phenyl)thiazol-2-yl)amino)-2-oxoethyl)-1-(isopropylsulfonyl)-5-methyl-1H-pyrrole-3-carboxamide], on BRM, the “BRM Max % Inhibition” value was over 95% and the IC50 is 0.1 to 1 µM. Moreover, at BRG-1, the IC50 lay within 0.1 to 1 µM and the Emax was over 70%.
As for `CS(=O)(=O)n1cc(C(=O)NCC(=O)Nc2nc(-c3cccc(-c4ccncc4)c3)cs2)c2ccccc21` [Compound 1, 1-(methylsulfonyl)-N-(2-oxo-2-((4-(3-(pyridin-4-yl)phenyl)thiazol-2-yl)amino)ethyl)-1H-indole-3-carboxamide], on BRM, the “BRM Max % Inhibition” value is over 70% and the IC50 fell in the range of 0.1 to 1 µM. For the same molecule, on BRG-1, the IC50 was over 5 µM and the Emax was under 30%.
In the case of `CS(=O)(=O)n1cc(C(=O)NCC(=O)Nc2nc(-c3cccc(-c4ccncc4)c3)cs2)c2ccncc21` [Compound 2, 1-(methylsulfonyl)-N-(2-oxo-2-((4-(3-(pyridin-4-yl)phenyl)thiazol-2-yl)amino)ethyl)-1H-pyrrolo[2,3-c]pyridine-3-carboxamide], on BRM, the “BRM Max % Inhibition” value is listed as over 80% and the IC50 lay within 0.1 to 1 µM. In addition, at BRG-1, the IC50 lay in the range of 1 to 5 µM and the Emax is over 70%.
For `C[C@@H]1CN(c2cccc(-c3csc(NC(=O)CNC(=O)c4cc(Cl)n(S(C)(=O)=O)c4)n3)c2)C[C@H](C)O1` [Compound 44, 5-chloro-N-(2-((4-(3-((2R,6S)-2,6-dimethylmorpholino)phenyl)thiazol-2-yl)amino)-2-oxoethyl)-1-(methylsulfonyl)-1H-pyrrole-carboxamide], the IC50 on BRM and on BRG-1 was under 0.1 µM each time.
`Cc1nccc(-c2cccc(-c3csc(NC(=O)CNC(=O)c4cc(Cl)n(S(=O)(=O)C(C)C)c4)n3)c2)n1` [Compound 41, 5-chloro-1-isopropylsulfonyl-N-[2-[[4-[3-(2-methylpyrimidin-4-yl)phenyl]thiazol-2-yl]amino]-2-oxo-ethyl]pyrrole-3-carboxamide]: at BRM, the “BRM Max % Inhibition” value is listed as over 95% and the IC50 was under 0.1 µM. For the same molecule, at BRG-1, the IC50 lay within 0.1 to 1 µM and the Emax was over 90%.
For `Cc1c(C(=O)NCC(=O)Nc2nc(-c3cccc(N4C[C@@H](C)O[C@@H](C)C4)c3)cs2)cn(S(C)(=O)=O)c1C` [Compound 15], at BRM, the “BRM Max % Inhibition” value is given as over 95% and the IC50 was under 0.1 µM. In addition, at BRG-1, the IC50 fell in the range of 0.1 to 1 µM and the Emax was over 90%.
